# Measured values as given in patent US6677315B2, “Nucleosides for imaging and treatment applications” (The United States of America as represented by the …, priority 1997, dated 2004).
# Key:
# [1] = test system: CEM cells; assay: Growth inhibition, 72-hr continuous exposure; assay type: cell-based, human
# Method: (§1) The human-derived cell lines CEM, MOLT-4, RAJI, U-937, K-562 and the murine-derived L1210 were purchased from the American Type Culture Collection, Rockville, Md. Cells were grown and maintained as a suspension culture in RPMI 1640 medium containing L-glutamine and 10%(v/v) heat-inactivated fetal calf serum (BRL-GIBCO, Rockville, Md.). Penicillin-streptomycin solution (Sigma Chemical Co., St. Louis, Mo.) was added to achieve a final concentration of 100 units/mL. and 100 μg/mL respectively.
# (§2) All cell lines, except for L1210, were suspended in fresh media at 30,000 cells/mL. L1210 cells were suspended at 10,000 cells/mL. Cells, 2 mL, were added to each of the wells of 24-well plates and incubated with either 0 to 1000 μM of FAU or 0 to 300 μM of FMAU. Incubation was conducted at 37° C. in a humidified 5% CO2 atmosphere for 72 hours. Inhibition of cellular growth was assessed by cell counting (Elzone 180, Particle Data, Inc., Elmhurst, IL). Under these conditions, the control doubling times for CEM, MOLT-4, RAJI, U-937, and K-562 cells were 21-22 hours, while the doubling times for L1210 was 8-10 hours.
# [2] = test system: MOLT-4 cells; assay: Growth inhibition, 72-hr continuous exposure; assay type: cell-based, human; settings: MOLT-4, 100 μM, 72 hours continuous incubation
# Method: as §1, §2
# [3] = test system: U-937 cells; assay: Growth inhibition, 72-hr continuous exposure; assay type: cell-based, human; settings: U-937, 100 μM, 72 hours continuous incubation
# Method: as §1, §2
# [4] = test system: K-562 cells; assay: Growth inhibition, 72-hr continuous exposure; assay type: cell-based, human
# Method: as §1, §2
# [5] = test system: RAJI cells; assay: Growth inhibition, 72-hr continuous exposure; assay type: cell-based, human; settings: 72 hours continuous incubation
# Method: as §1, §2
# [6] = test system: L1210 cells; assay: Growth inhibition, 72-hr continuous exposure; assay type: cell-based, murine; settings: L1210, 100 μM, 72 hours continuous incubation
# Method: as §1, §2
# [7] = biological target: T1, thymidylate synthase in CEM cells (Homo sapiens, UniProt P04818); assay: Dehalogenation of IdUrd as probe for thymidylate synthase activity in situ; assay type: cell-based; settings: 3 μM [3H]-IdUrd for 24 hours, fraction in DNA
# T1 construct: endogenous in cells; host or cells: CEM cells
# Method: (§3) The relative activity of thymidylate synthase was determined after incubation of cells with 3 μM [3H]-IdUrd for 24 hours. DNA was harvested, digested, and chromatographed as described above. Some IdUrd was incorporated into DNA with the iodine remaining intact on the pyrimidine ring. After conversion to IdUMP, part of the IdUrd was dehalogenated by TS to dUMP, which then was converted by TS into dTMP and subsequently incorporated into DNA, and recovered in the DNA digest as [^3H-dThd]. Relative TS activity in situ was defined as the fraction of IdUrd-derived material in DNA which was dehalogenated, i.e., ([^3H]-dThd)/([^3H]-dThd+[^3H]-IdUrd). These methods could also be used with non-radioactive IdUrd, if a stable isotopic label is used, e.g., ^13C, ^15N or ^2H. A mass spectrometric detector would be substituted for the radioactivity detector in the HPLC analysis. Unlabeled IdUrd can't be used since its dehalogenation produced unlabeled dThd, which would be indistinguishable from the endogenous pool of dThd in DNA.
# [8] = biological target: T2, thymidylate synthase in RAJI cells (Homo sapiens, UniProt P04818); assay: as above; assay type: cell-based; settings: 3 μM [3H]-IdUrd for 24 hours, fraction in DNA
# T2 construct: endogenous in cells; host or cells: RAJI cells
# Method: as §3
# [9] = biological target: T3, thymidylate synthase in MOLT-4 cells (Homo sapiens, UniProt P04818); assay: as above; assay type: cell-based; settings: MOLT-4, 3 μM [3H]-IdUrd for 24 hours, fraction in DNA
# T3 construct: endogenous in cells; host or cells: MOLT-4 cells
# Method: as §3
# [10] = biological target: T4, thymidylate synthase in U-937 cells (Homo sapiens, UniProt P04818); assay: as above; assay type: cell-based; settings: U-937, 3 μM [3H]-IdUrd for 24 hours, fraction in DNA
# T4 construct: endogenous in cells; host or cells: U-937 cells
# Method: as §3
# [11] = biological target: T5, thymidylate synthase in L1210 cells (Mus musculus, UniProt P07607); assay: as above; assay type: cell-based, murine; settings: L1210, 3 μM [3H]-IdUrd for 24 hours, fraction in DNA
# T5 construct: endogenous in cells; host or cells: L1210 cells
# Method: as §3
# [12] = test system: CEM, MOLT-4, RAJI, U-937, K-562 and L1210 cells; assay: Growth inhibition, 72-hr continuous exposure, all cell lines; assay type: cell-based, human; murine
# Method: as §1, §2
# [13] = test system: L1210 cells; assay: Intracellular nucleotide formation and incorporation into DNA; assay type: cell-based, murine; settings: L1210, 10 μM FAU for 24 hours; incorporated as FMAU
# Method: as §1
# (§4) All cell lines, except for L1210, were resuspended in fresh media at 300,000 cells/mL with appropriate amount of radioactive drug. L1210 cells were resuspended at 150,000 cells/mL. […] Soluble nucleotides were determined for each cell line following exposure to 10 μM FAU. Incorporation of FAU into DNA (as FMAU) was determined over a range of FAU concentrations from 1 μM to 1 mM. […] These bases and soluble nucleotides were determined by previously reported HPLC-based methods as noted by Klecker et al. in the previously mentioned reference, “Toxicity, Metabolism, DNA Incorporation with Lack of Repair, and Lactate Production for 1-(2′-fluoro-2′-deoxy-β-D-arabinofuranosyl)-5-iodouracil in U-937 and MOLT-4-cells.” Drug incorporation into cellular DNA was determined using the equation: percent incorporation=100×([drug]/([dThd]+[drug]).
# [14] = test system: CEM, MOLT-4, RAJI, U-937, K-562 and L1210 cells; assay: Intracellular nucleotide formation, all cell lines; assay type: cell-based, human; murine; settings: incubation with 10 μM FAU for 24 hours
# Method: as §1, §4
# [15] = test system: mice; assay: Toxicity in mice after oral gavage for 14 days; assay type: in vivo; settings: oral gavage 5 g/kg once per day for 14 days, plus 14 days observation
# Method: (§5) The toxicity of the compounds of the present invention has been evaluated in an animal model system. FAU was administered by oral gavage to mice at a dose of 5 g/kg once per day for 14 consecutive days. After an additional 14 days of observation following this dosing period, the animals were sacrificed. […] Blood samples were obtained at various times during this treatment, to confirm that the drug was adequately absorbed. HPLC analysis of these samples indicated FAU concentrations in plasma reached maximum levels of 750 micromolar and minimum levels of 50 micromolar.
# [16] = FAU plasma concentrations in mice during oral dosing (HPLC); assay type: in vivo; settings: oral gavage 5 g/kg once per day for 14 days
# Method: as §5
# [17] = test system: CEM cells; assay: Intracellular nucleotide formation and incorporation into DNA; assay type: cell-based, human; settings: 10 μM FAU for 24 hours
# Method: as §1
# (§6) All cell lines, except for L1210, were resuspended in fresh media at 300,000 cells/mL with appropriate amount of radioactive drug. L1210 cells were resuspended at 150,000 cells/mL. After 24 hours at 37° C. in a humidified 5% CO2 atmosphere, cells were harvested for nucleotide measurement and DNA incorporation. Soluble nucleotides were determined for each cell line following exposure to 10 μM FAU. Incorporation of FAU into DNA (as FMAU) was determined over a range of FAU concentrations from 1 μM to 1 mM. As described previously by Klecker, R W, Katki A G, Collins J M. in “Toxicity, Metabolism, DNA Incorporation with Lack of Repair, and Lactate Production for 1-(2′-Fluoro-2′-deoxy-β-D-arabinofuranosyl)-5-iodouracil in U-937 and MOLT-4-cells”, Mol. Pharmacol. 1994; 46;1204-1209; and Speth P A J, Kinsella T J, Chang A E, Klecker R W, Belanger K. Collins J M. in “Incorporation of Iododeoxyuridine into DNA of Hepatic Metastases Versus Normal Human Liver.” Clin. Pharmacol. Ther. 1988; 44:369-75, DNase I and phosphodiesterase I were used to release the bases from DNA. These bases and soluble nucleotides were determined by previously reported HPLC-based methods as noted by Klecker et al. in the previously mentioned reference, “Toxicity, Metabolism, DNA Incorporation with Lack of Repair, and Lactate Production for 1-(2′-fluoro-2′-deoxy-β-D-arabinofuranosyl)-5-iodouracil in U-937 and MOLT-4-cells.” Drug incorporation into cellular DNA was determined using the equation: percent incorporation=100×([drug]/([dThd]+[drug]).
# [18] = test system: MOLT-4 cells; assay: as above; assay type: cell-based, human; settings: MOLT-4, 10 μM FAU for 24 hours
# Method: as §1, §6
# [19] = test system: U-937 cells; assay: as above; assay type: cell-based, human; settings: U-937, 10 μM FAU for 24 hours
# Method: as §1, §6
# [20] = test system: K-562 cells; assay: as above; assay type: cell-based, human; settings: K-562, 10 μM FAU for 24 hours
# Method: as §1, §6
# [21] = test system: RAJI cells; assay: as above; assay type: cell-based, human; settings: 10 μM FAU for 24 hours
# Method: as §1, §6
# [22] = test system: thymidylate synthase (TS) in cell extracts of the other cell lines; assay: Methylation of FAUMP by thymidylate synthase in cell extracts (tritium release), other cell lines; assay type: biochemical, human; murine; settings: 20 μM substrate, tritiated water release
# Method: (§7) When TS adds a methyl group to the 5-position of dUMP to generate dTMP, the proton at that location is released. When [5-^3H]dUMP is the substrate, TS activity in cell extracts can be assessed by monitoring the accumulation rate of tritiated water. Here, [5-^3H]FAUMP was used as the substrate for methylation by TS, and the generation of FMAUMP was determined from the release of tritiated water. Cell extracts were prepared from each cell line by sonication of intact cells. (See: Armstrong R D, Diasio R B. “Improved Measurement of Thymidylate Synthetase Activity by a Modified Tritium-Release Assay” J. Biochem. Biophys. Methods. 1982; 6: 141-7 and Speth P A J, Kinsella T J, Chang A E, Klecker R W, Belanger K. Collins J M. “Incorporation of Iododeoxyuridine into DNA of Hepatic Metastases Versus Normal Human Liver” Clin. Pharmacol. Ther. 1988; 44:369-75.) The methyl donor was provided by 5,10-methylene tetrahydrofolate, which was generated in situ by the addition of formaldehyde to tetrahydrofolate. At various times after the addition of substrate (20 μM of either [5-^3H]dUMP or [5-^3H]FAUMP), the reaction was stopped by addition of HCl. Unreacted substrate was separated from tritiated water by adsorption onto activated charcoal. After centrifugation, an aliquot of the supernatant was counted for tritiated water.
# [23] = biological target: T6, thymidylate synthase (TS) in U-937 cell extracts (Homo sapiens, UniProt P04818); assay: Methylation of FAUMP by thymidylate synthase in cell extracts (tritium release); assay type: biochemical; settings: 20 μM substrate, tritiated water release
# T6 construct: Cell extracts were prepared from each cell line by sonication of intact cells; endogenous in cells; host or cells: U-937 cells (sonicated extract)
# Method: as §7
# T5 sequence (P07607 whole entry): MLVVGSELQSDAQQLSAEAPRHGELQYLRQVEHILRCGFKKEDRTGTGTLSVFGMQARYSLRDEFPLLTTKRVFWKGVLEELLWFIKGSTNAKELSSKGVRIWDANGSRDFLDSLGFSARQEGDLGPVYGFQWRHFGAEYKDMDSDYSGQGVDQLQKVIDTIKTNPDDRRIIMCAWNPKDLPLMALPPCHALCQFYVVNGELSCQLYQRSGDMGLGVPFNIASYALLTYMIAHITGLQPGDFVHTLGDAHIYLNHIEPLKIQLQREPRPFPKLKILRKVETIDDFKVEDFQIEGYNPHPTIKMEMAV
# T1 sequence (P04818 whole entry): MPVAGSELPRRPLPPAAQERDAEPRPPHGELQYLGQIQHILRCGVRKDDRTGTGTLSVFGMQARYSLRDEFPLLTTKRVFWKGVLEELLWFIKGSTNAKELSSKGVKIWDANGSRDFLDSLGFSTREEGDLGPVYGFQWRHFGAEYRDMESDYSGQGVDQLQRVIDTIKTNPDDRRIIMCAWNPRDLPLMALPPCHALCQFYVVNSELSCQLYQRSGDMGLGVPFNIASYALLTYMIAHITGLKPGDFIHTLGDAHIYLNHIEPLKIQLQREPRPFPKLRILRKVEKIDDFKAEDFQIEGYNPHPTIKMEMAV
# T3 sequence (P04818 whole entry): as above
# T6 sequence (P04818 whole entry): as above
# T2 sequence (P04818 whole entry): as above
# T4 sequence (P04818 whole entry): as above
smiles,measurement,setting,value
"Cc1cn([C@H]2O[C@H](CO)[C@@H](O)[C@@H]2F)c(=O)[nH]c1=O [FMAU, 1-(2-deoxy-2-fluoro-alpha-D-arabinofuranosyl)thymine, reference compound]",effect on cell growth,"[1]; 0.3 μM (lowest concentration used), 72 hours",substantial effect
same,inhibition at 100 µM,"[1]; Homo sapiens, CCRF-CEM, 100 μM, 72 hours continuous incubation",> 80%
same,inhibition at 100 µM,[2]; Homo sapiens,> 80%
same,inhibition at 100 µM,[3]; Homo sapiens,> 80%
same,inhibition at 100 µM,"[4]; Homo sapiens, K562, K-562, 100 μM, 72 hours continuous incubation",> 80%
same,effect on cell growth,"[4]; K-562, 0.3 μM (lowest concentration used), 72 hours",substantial effect
same,inhibition at 100 µM,[5]; Homo sapiens,> 80%
same,inhibition at 100 µM,[6]; Mus musculus,> 80%
"O=c1[nH]c(=O)n([C@H]2C[C@H](O)[C@@H](CO)O2)cc1I [IdUrd, Iododeoxyuridine]",relative dehalogenation of IdUrd,[7],≥ 50%
same,relative dehalogenation of IdUrd,[8],≤ 15%
same,relative dehalogenation of IdUrd,[9],≥ 50%
same,relative dehalogenation of IdUrd,[10],≥ 50%
same,relative dehalogenation of IdUrd,[11],≤ 15%
"O=c1ccn([C@@H]2O[C@H](CO)[C@@H](O)[C@@H]2F)c(=O)[nH]1 [FAU, 1-(2′Fluoro-2′deoxy-β-D-arabinofuranosyl)-uracil]",IC50 values relative to FMAU (fold higher),[12],10 fold
same,growth inhibition,"[1]; 100 μM, 72 hours continuous incubation",more than 50%
same,growth inhibition,[2],somewhat less inhibited
same,growth inhibition,[3],more than 50%
same,growth inhibition,"[4]; K-562, 100 μM, 72 hours continuous incubation",somewhat less inhibited
same,growth inhibition,[5]; 100 μM,completely uninhibited
same,growth inhibition,[6],completely uninhibited
same,DNA % incorp,[13],0.08 ± 0.005%
same,amounts of FMAUMP or FMAUDP found intracellularly,[14],trace amounts
same,histopathologic examination of murine tissues (toxicity),[15],no toxicity attributable to the drug treatment
same,"FAU concentration in plasma, maximum level",[16],750 µM
same,"FAU concentration in plasma, minimum level",[16],50 µM
same,FAUMP formed intracellularly,[17],0.96 ± 0.24 nmol/10^6 cells
same,FMAUTP formed intracellularly,[17],2.30 ± 0.28 nmol/10^6 cells
same,DNA % incorp,[17]; incorporated as FMAU,0.81 ± 0.10%
same,FMAUTP formed intracellularly,[18],1.92 ± 0.55 nmol/10^6 cells
same,DNA % incorp,[18]; incorporated as FMAU,0.19 ± 0.01%
same,FAUMP formed intracellularly,[19],2.70 ± 0.69 nmol/10^6 cells
same,FMAUTP formed intracellularly,[19],1.99 ± 0.08 nmol/10^6 cells
same,DNA % incorp,[19]; incorporated as FMAU,0.50 ± 0.02%
same,FAUMP formed intracellularly,[20],11.1 ± 0.9 nmol/10^6 cells
same,DNA % incorp,[20]; incorporated as FMAU,0.22 ± 0.002%
same,FAUMP formed intracellularly,[21],0.95 ± 0.17 nmol/10^6 cells
same,DNA % incorp,[21]; incorporated as FMAU,0.09 ± 0.002%
"O=c1ccn([C@@H]2O[C@H](COP(=O)(O)O)[C@@H](O)[C@@H]2F)c(=O)[nH]1 [FAUMP, FAU monophosphate]",rate of conversion to FMAUMP as % of the rate of dTMP formation from dUMP,[22],0.97-1.5%
same,rate of conversion to FMAUMP as % of the rate of dTMP formation from dUMP,[23],about 1%
